A short description of series [1]: DBP release from liquid PDMS emulsion droplets (bare or silica nanoparticle-coated) into MilliQ water, sink conditions. Format: physicochemical. The following applies: for release rate constant (interfacial transport): hydrophobic nanoparticle-coated liquid PDMS droplets; for activation energy (Ea) for crossing the interfacial barrier: liquid PDMS droplets, Arrhenius, 22-37° C. The method, then:
FIG. 7 is a graph of Ln (1−Mt/M0) versus time for DBP release profiles from hydrophobic nanoparticle-coated liquid PDMS emulsion (φ=0.01) containing 0.025 wt % DBP, 900 ml MQ water as dissolution medium, where […]10^−3M NaCl; ⋄10^−2 M NaCl; Δ10^−1 M NaCl;
FIG. 8 is a graph showing Arrhenius plots for DBP release profiles from hydrophobic coated liquid PDMS emulsion droplets (φ=0.01) containing 0.025 wt % DBP, 900 ml MQ water as dissolution medium, where […]10^−1 M NaCl; ⋄10^−3M NaCl;
In experiments, dibutylphthalate (DBP) was chosen as a model drug because it is a liquid that is poorly soluble but readily miscible with PDMS. Release profiles of DBP were determined from both bare droplets (i.e. droplets not coated with nanoparticles) and coated droplets (i.e. droplets coated with hydrophilic particles and from droplets coated with hydrophobic particles).
(§1) DBP was incorporated into the PDMS droplets during the synthesis step outlined in Example 3. A modification of the method reported by Obey, T. M. and Vincent, B., (1994), Journal of Colloid Interface Science, 163:454-463 and Goller, M. I. et al., (1997), Physiochemical and Engineering Aspects, 123-124 and 183-193 (without dialysis) was employed (herein incorporated by reference). PDMS droplets were prepared according to Example 3. A further batch of cross-linked PDMS droplets were prepared using the same procedure as for liquid droplets except that the mixtures of monomer and cross-linking trimer DEDMS:TEMS (tritethoxymethylsilane) at ratios 1:0.1-1 were used instead of pure monomer. The cross-linking level of the droplets prepared ranged from 0, 10, 20, 30, 40 to 50%.
(§2) Bare and nanoparticle-coated droplet samples were prepared by mixing 10 ml of the prepared emulsions with 10 ml of sonicated MilliQ water and silica aqueous dispersions, respectively. Salt concentrations were adjusted from between 10^−4 to 10^−1 M NaCl in order to control the nanoparticle layer structure as described above.
The release rate is even more retarded in the presence of a thick interfacial particle wall prepared at 10^−1 M NaCl. Thus, depending on salt concentration, hydrophobic silica nanoparticle coatings can provide a permeable or semi-permeable barrier.
The activation energy for crossing the interfacial barrier was determined using an Arrhenius approach. Release profiles for droplets coated at 10^−3 M NaCl and 10^−1 M NaCl were determined at four temperatures: 22° C., 27° C., 32° C. and 37° C. Kinetic rate constants were determined for each temperature from equation A above and from the plots Ln k vs. 1/T (FIG. 8) the activation energies (Ea) were calculated:
Aqueous solutions containing 1% diethoxy-dimethyl-silane (DEDMS), which was previously mixed with 0, 0.025, 0.1 and 0.25 wt % DBP in a nitrogen gas atmosphere, and 0.1% ammonia were sealed under nitrogen gas in a 250 ml reaction vessel, shaken vigorously for 30 seconds, and than tumbled at 30 rpm and 25° C. for 18 hours.

Series [2] in a line: DBP release from cross-linked PDMS emulsion droplets (bare or silica nanoparticle-coated) into MilliQ water. Format: physicochemical. Here is the method: FIG. 12 is a graph showing DBP release profiles from cross-linked PDMS emulsion droplets (φ=0.01) containing 0.025 wt % DBP, 900 ml MQ water as dissolution medium, where ⋄ bare PDMS droplets and PDMS droplets coated by hydrophobic silica nanoparticles: […]10^−4M NaCl; Δ10^−3M NaCl; ◯10^−1 M NaCl;
FIG. 13 is a graph showing Ln ([…]) versus time for drug release profiles from cross-linked PDMS emulsion droplets (φ=0.01) containing 0.025 wt % DBP, 900 ml MQ water as dissolution medium, where ◯ bare PDMS droplets and PDMS droplets coated by hydrophobic silica nanoparticles; […]10^−4M NaCl; Δ10^−3M NaCl; ◯10^−1 M NaCl;
FIG. 15 is a graph showing DBP release profiles from cross-linked PDMS emulsion droplets (φ=0.01) containing 0.25 wt % DBP in emulsions, 900 ml MQ water as dissolution medium, where ⋄ bare PDMS droplets and PDMS droplets coated by hydrophobic silica nanoparticles: […]10^−4 M NaCl; Δ10^−3 M NaCl; ◯10^−1 M NaCl;
as §1, §2
Cross-linked droplets (40% cross-linked) were chosen for study due to the fact that DBP partitioning coefficients were the highest at this cross-linking level, i.e. entrapment of DBP was the highest. […] Hydrophilic silica nanoparticle-coated capsules (created at 10^−2 M NaCl) and permeable, hydrophobic silica nanoparticle-coated capsules (created at 10^−4 M NaCl) have no effect on drug dissolution as opposed to semi-permeable hydrophilic/hydrophobic silica nanoparticle coatings around capsules (created at 10^−3-10^−1 M NaCl).
The rate limiting step for drug release from bare cross-linked droplets is diffusion through the internal matrix, therefore the diffusion-limited model is applicable (FIG. 12). Good linear fits were obtained for the first 120 minutes of release (FIG. 13). Calculated diffusion coefficients are presented in the table of FIG. 14 and are in agreement with typical values for drug diffusion in gels (e.g. 4.8 to 6.5 nm^2s^−1).

The format of series [3] is physicochemical. Here is the method:
FIG. 10 is a graph showing DBP release profiles in 900 ml MQ water: pure DBP added: 1.1 mg/100 ml and DBP 0.1% wt in PDMS emulsion droplets (φ=0.01), where ⋄ bare liquid PDMS droplets; □ pure DBP; Δ pure DBP with hydrophilic silica nanoparticles; ◯ pure DBP with hydrophobic silica nanoparticles; * PDMS droplets coated by hydrophilic silica (10^−2 M NaCl); x PDMS droplets coated by hydrophobic silica nanoparticles (10^−4 M NaCl); + PDMS droplets coated by hydrophobic silica nanoparticles (10^−1 M NaCl); the dotted line corresponds to the maximal DBP concentration that can be achieved in the dissolution medium;
FIG. 11 is a graph of DBP release profiles in 900 ml MQ water, pure DBP added: 2.8 mg/100 ml and DBP (0.25% wt) in PDMS emulsion droplets (φ=0.01): ⋄ bare liquid PDMS droplets; □ pure DBP; Δ pure DBP with hydrophilic silica nanoparticles; ◯ pure DBP with hydrophobic silica nanoparticles; * PDMS droplets coated by hydrophilic silica nanoparticles (10^−2 M NaCl); x PDMS droplets coated by hydrophobic silica nanoparticles (10^−4 M NaCl); + PDMS droplets coated by hydrophobic silica nanoparticles (10-1 M NaCl); dotted line correspond to the maximal DBP concentration that can be achieved in the dissolution medium;
However, the dissolution rate is increased when DBP is incorporated into PDMS emulsion droplets.
Similar trends of increased solubility rate occur when the total DBP concentration is well above the solubility limit (2.8 mg/100 ml) (FIG. 11). The observed increase in solubility of DBP is even more evident giving rise to supersaturated solutions. The intensity and duration of the “supersaturation” effect is much more pronounced for hydrophobic silica coated droplets. For hydrophilic particles, the peak in the soluble DBP concentration is at a maximum after 2 hours and then subsequently the soluble amount of DBP decreases within the next 6 hours and eventually reduces back to the solubility limit (FIG. 11).

Structures are written as SMILES.

As to `CCCCOC(=O)c1ccccc1C(=O)OCCCC` [DBP, dibutylphthalate], the “drug release from within the bare droplets” value in series [1] (bare liquid PDMS droplets, drug concentration significantly below its solubility limit in water) was “rapid and complete”. The “release rate constant (interfacial transport)” value in series [1] (at 10^-1 M NaCl) is 0.05 nm^2s^-1; in series [1] (at 10^-3 and 10^-2 M NaCl) it was 0.3 nm^2s^-1. Further, the half release time result in series [1] (liquid PDMS droplets coated with hydrophobic silica nanoparticles at 10^-3 and 10^-2 M NaCl, 0.025 wt % DBP) was “approximately 18 hours”. Also, the “activation energy (Ea) for crossing the interfacial barrier” value is recorded as 630 kJmol^-1 in series [1] (nanoparticle layer prepared at 10^-1 M NaCl) and 580 kJmol^-1 in series [1] (nanoparticle layer prepared at 10^-3 M NaCl). The “activation energy for drug diffusion” value is 127±15 kJmol^-1 in series [2] (bare cross-linked droplets); 155 kJmol^-1 in series [2] (cross-linked droplets with hydrophobic silica nanoparticle coating, first value given); 177±25 kJmol^-1 in series [2] (cross-linked droplets with hydrophobic silica nanoparticle coating, second value given). Besides, the “time for release process to reach equilibrium” value in series [2] (cross-linked PDMS droplets, 0.025 wt % DBP) is reported as “approximately 2 hours”. The diffusion coefficient in series [2] (cross-linked droplets with hydrophobic silica nanoparticle coating, first value given (salt level not stated, presumably 10^-3 M NaCl)) is 3.2 nm^2s^-1; in series [2] (cross-linked droplets with hydrophobic silica nanoparticle coating, second value given (salt level not stated, presumably 10^-1 M NaCl)), 2.4±0.5 nm^2s^-1; in series [2] (cross-linked droplets, DBP concentration above the solubility limit (0.25 wt %), first 90 minutes), 3.5±0.5 nm^2s^-1. The “amount of DBP loaded still remaining in the droplets after 2 hours” value is 25% in series [2] (cross-linked droplets, bare and coated with permeable silica nanoparticle coatings at 10^-4 M NaCl); 46% in series [2] (cross-linked droplets, silica coating at 10^-1 M NaCl); 37% in series [2] (cross-linked droplets, silica coating at 10^-3 M NaCl). Further, the “time after which amount in solution reduces to the normal solubility limit (duration of supersaturation)” value in series [3] is 10 h. The “time of peak soluble DBP concentration” value in series [3] worked out at 2 h. Moreover, the “time to achieve the equilibrium solubility level” value in series [3] is “approximately 20 hours”.

The values are drawn from patent US20110229559A1, “Drug Release From Nanoparticle-Coated Capsules” (University of South Australia, priority 2006, published 2011).
